# From US11571484B2, “Compositions that target tumor-associated macrophages and methods of use therefor” (Sanford Burnham Prebys Medical Discovery Institute, priority 2017, dated 2023)
# What was measured:
# [1] = system: MRC1/CD206-expressing tumor-associated macrophages (MEMs) in 4T1 tumors; assay: Free peptide homing and immunofluorescence in the orthotopic 4T1 breast tumor model; details: 30 nmoles i.v., 2 h circulation
# Method: (SEQ ID NO: 5) control peptide were injected intravenously into 4T1 tumor-bearing mice and allowed to circulate for 2 h. Mice were then sacrificed and tumor and tissues were analyzed by immunofluorescence using rabbit anti-FAM (green) and rat anti-CD206 or rat anti-TIE2 (red) antibodies, and counterstained with DAPI. All images were taken under the same imaging conditions. FAM-UNO accumulated in macrophages within tumors and lymph nodes positive for CD206 staining (A, B, C) and TIE2 (D, and H: Blow up of D). […] To ascertain that anti-CD206 is capable of detecting CD206 in the liver, an image was acquired with longer exposure time from an uninjected animal (FIG. 25). […] Green: FAM-peptide; Red: CD206 or TIE2, Blue: DAPI. Representative fields from multiple sections prepared from at least 3 tumors (n≥3 mice) are shown.
# (§1) Tumor models were induced according to protocols approved by the Estonian Ministry of Agriculture, Committee of Animal Experimentation (permit #48). For the 4T1 breast model, 8-week old female Balb/c mice were injected in the mammary fat pad with 10^6 cells dispersed in 50 μL of PBS. For homing studies, mice were used 10 days later, when the tumor had reached ˜150 mm^3. For MCF-7 breast model, 8-week old female nude mice were implanted with an estrogen pellet, and 1 week later inoculated with 5×10^6 MCF-7 cells in 100 μL of cold Matrigel (BD Biosciences, CA, USA). Mice were used for homing studies three weeks later (tumor volume˜150 mm^3). For the metastatic gastric carcinoma, 10^6 MKN45-P cells in PBS were injected intraperitoneally in 8-week old female nude mice. Mice were used for homing studies two weeks later. For the metastatic melanoma model, 2×10^5 B16F10 cells were injected intravenously in 100 μL of PBS in C57 BL6 mice. The mice were used for homing studies 10 days after. For the angiogenic glioblastoma model, WT-GBM 24, 7×10^5 cells were stereotactically injected in the right striatum of Fox/Nu mice 2 mm lateral and posterior of bregma of 2.5 mm deep. The mice were used for homing studies 6-7 days after the injection.
# For free peptide homing studies, mice were injected intravenously with 30 nmoles of FAM-peptides in 100 μL of PBS. For nanoparticle homing studies-FAM-UNO—NP-PTX-, mice were injected intravenously in mice bearing MCF-7 breast tumors with 1 mg of Polymer in 100 μL pf PBS and allowed to circulate for 6 h. For tissue collection, the mice were anesthetized and the tissues collected and immediately placed in 4% cold PFA and left overnight at 4-C. Tissues were washed with PBS for 2 h at room temperature and cryoprotected with sucrose 15% at 4-C overnight and then in sucrose 30% at 4·C overnight. The tumor and the control organs were placed together in the same block with OCT compound (Leica Biosystems, Wetzlar, Germany), snap-frozen in isopentane, and sectioned at 10 μm. FAM was detected using Rabbit anti-FITC (Invitrogen, CA, USA. Catalog # A-889) at a dilution of 1/100 and using Alexa Fluor-546 anti-rabbit antibody (Invitrogen, Ca, USA. Catalog # A-11035) at a dilution of 1/200. CD31 was detected using rat anti-mouse CD31 (BD Biosciences, CA, USA. Catalog #: 553370), TIE2 was detected using rat anti-mouse TIE2 (Biolegend, CA, USA. Catalog #124001), CD209 was detected using rat anti-mouse CD209 (Biolegend, CA, USA. Catalog #147802), HLA ABC was detected using rat anti Human HLA ABC (Bio-Rad, CA, USA. Product code MCA485G), and CD206 was detected using ratanti-mouse CD206 (Bio-Rad, CA, USA. Product code MCA2235GA); using 1/100 primary antibody dilution and Alexa Fluor-647 anti-Rat antibody (Invitrogen, CA, USA. Catalog #21247) at 1/200 dilution. To quantify FAM signal from confocal images, the green channel of images taken by using 20× magnification objective was opened with ImageJ, converted to 8-bit grayscale and the integrated pixel intensity was measured. Different regions of tumors from three different mice were used.
# MEMs in WT-GBM tumors = assay: Free peptide homing and immunofluorescence in the orthotopic WT-GBM glioblastoma model; details: 30 nmoles i.v., 2 h
# Method: (§2) Thirty nmoles of FAM-UNO or FAM-control peptide were injected intravenously into mice and allowed to circulate for 2 h. Mice were then sacrificed and tumor and tissues were analyzed by immunofluorescence using rabbit anti-FAM (green) and rat anti-CD206 (red) antibodies, and counterstained with DAPI. […] The metastases were induced by i.v. inoculation of B16F10 melanoma cells. […] Blue: DAPI. Representative fields from multiple sections (n≥3) prepared from at least 3 tumors are shown. Scale bar: 50 μm. Images shown are representative fields from multiple sections (≥3) prepared from at least 3 tumors (n≥3 mice). The graphs show mean+SEM of FAM signal quantified as described in Materials and Methods.
# as §1
# For free peptide homing studies, mice were injected intravenously with 30 nmoles of FAM-peptides in 100 μL of PBS. For nanoparticle homing studies-FAM-UNO—NP-PTX-, mice were injected intravenously in mice bearing MCF-7 breast tumors with 1 mg of Polymer in 100 μL pf PBS and allowed to circulate for 6 h. For tissue collection, the mice were anesthetized and the tissues collected and immediately placed in 4% cold PFA and left overnight at 4-C. Tissues were washed with PBS for 2 h at room temperature and cryoprotected with sucrose 15% at 4-C overnight and then in sucrose 30% at 4·C overnight. […] FAM was detected using Rabbit anti-FITC (Invitrogen, CA, USA. Catalog # A-889) at a dilution of 1/100 and using Alexa Fluor-546 anti-rabbit antibody (Invitrogen, Ca, USA. Catalog # A-11035) at a dilution of 1/200.
# MEMs in MKN45-P tumors = details: 30 nmoles i.v., 2 h
# Method: as §2
# as §1, with “For the angiogenic glioblastoma model, WT-GBM 24, 7×10^5 cells were stereotactically injected in the right striatum of Fox/Nu mice 2 mm lateral and posterior of bregma of 2.5 mm deep. The mice were used for homing studies 6-7 days after the injection.” left out
# (§3) For free peptide homing studies, mice were injected intravenously with 30 nmoles of FAM-peptides in 100 μL of PBS. […] FAM was detected using Rabbit anti-FITC (Invitrogen, CA, USA. Catalog # A-889) at a dilution of 1/100 and using Alexa Fluor-546 anti-rabbit antibody (Invitrogen, Ca, USA. Catalog # A-11035) at a dilution of 1/200.
# [2] = system: MEMs in B16F10 melanoma lung metastases; details: 30 nmoles i.v., 2 h
# Method: as §2
# as §1, with “For the angiogenic glioblastoma model, WT-GBM 24, 7×10^5 cells were stereotactically injected in the right striatum of Fox/Nu mice 2 mm lateral and posterior of bregma of 2.5 mm deep. The mice were used for homing studies 6-7 days after the injection.” left out
# as §3
# peritoneal macrophages = assay: In vivo phage display on peritoneal cells of 4T1 tumor-bearing versus normal mice; parameters: species or system mouse; details: phage-displayed peptide
# Method: A, Naive phage library was injected intraperitoneally in 4T1 tumor-bearing mice and age-matched normal mice, and allowed to circulate for two h. Peritoneal cells were collected, the accompanying phages were rescued and the peptide-encoding segment of phage DNA was sequenced. […] Peritoneal cells were extracted from the mice, seeded on coverslips, allowed to attach for 2 h, fixed, permeabilized, and stained for CD206. CD206+ cells were counted from 6 different confocal images, 2 from each mouse. C, Highly repeated sequences obtained from the first round of the biopanning experiment shown schematically in panel A. D, Frequency of phage clones encoding UNO or a randomly picked peptide (CIGVSSDC) divided by the total number of repeated sequences) in the 4T1 tumor-bearing and normal mice.
# Ten days later, the 4T1 mouse and a Balb/c female mouse of the matched age, were injected with 500 μL of a 7×10^10 pfu/mL of purified CX7C long-circulating library that bears a mutation on the p17 protein of tail fiber^45. After 2 h the mice were anesthetized and peritoneal cells were collected, washed by centrifugation, and lysed by hand-held homogenizer in 2 mL of LB+NP40 1%. The phage was amplified in E. coli strain BLT5403 for high throughput sequencing of peptide encoding segment of the phage genomic DNA using Ion Torrent semiconductor sequencing system.
# In vivo phage display was carried out on orthotopic breast cancer bearing mice as outlined in FIG. 1A. Compared to peritoneal cells of healthy mice, […] macrophages were ˜5-fold overrepresented in Balb/c mice bearing metastatic syngeneic 4T1 breast tumors (FIG. 1B). We hypothesized that a peptide that binds to peritoneal macrophages in tumor-bearing mice may also target M2-like TAMs. Mice with 4T1 tumors were injected intraperitoneally (i.p.) with a phage library expressing 9-amino acid cyclic CX7C peptides. After 2 h, peritoneal cells were collected, bound phages were rescued by amplification, and the resulting phage pool was subjected to high-throughput sequencing of the peptide-encoding segment of the phage genome. […]
# RAW 267.4 cells = assay: Phage biopanning on cultured CD206- RAW 267.4 macrophages; type: cell-based, mouse; details: phage-displayed peptide, 4 °C overnight
# Method: A, Cultured RAW 267.4 mouse macrophages were fixed with PFA and stained with rat anti-CD206 (red) and counterstained with DAPI (blue). B, Phage display on RAW 267.4 cells. Cells were lifted using a cell scraper, centrifuged, brought to 4° C. and incubated with 0.5 mL of the same phage library used for the in vivo experiments (0.5 mL of 7×10^10 pfu/mL)+0.5 mL of DMEM, at 4° C. overnight. Cells were then washed four times resuspending in PBS and placing in a new tube every time, lastly the cells were suspended in LB+NP40%, lysed and phage insert were sequenced. The UNO clone is […] of the list (red). Only the top 50 hits from the screen are shown. Scale bar: 50 μm.
# Mouse macrophage cell line Raw 267.4 (ATCC, VA, USA) was cultured in DMEM with FBS and antibiotics. Cells from a 25 cm^2 flask (˜3×10^6 cells) were lifted using a cell scraper, centrifuged, brought to 4. C and incubated with 0.5 mL of the same purified library used for the in vivo experiments (0.5 mL of 7×10^10 pfu/mL)+0.5 mL of DMEM, at 4-C overnight. Cells were then washed four times by re-suspending in PBS and placing them in a new tube every time, and finally suspended in LB+1% NP40, lysed and subjected to high throughput sequencing.
substance,measurement,setting,value
FAM-CRKQGEAKC: FAM-labeled control peptide CRKQGEAKC (SEQ ID NO: 5) of the same charge and molecular weight as FAM-UNO (not fully specified; FAM label) [reference compound],accumulation in MEMs / tumor homing,[1],no tumor homing
same,accumulation in tumor,MEMs in WT-GBM tumors,did not accumulate in the tumor
same,accumulation in tumor,MEMs in WT-GBM tumors; listed as FAM-Control peptide,Little to no
same,accumulation in MEMs / CD206+ cells,MEMs in MKN45-P tumors,no accumulation was detected in CD206^+ cells
same,homing to melanoma lung metastases,[2],Little to no
"CSPGAKVRC [peptide codenamed UNO, identified by in vivo phage display]",overrepresentation of phage in peritoneal cells from 4T1 tumor-bearing mice versus healthy mice,"peritoneal macrophages; library injected i.p., 2 h",~10 fold
same,representation among sequenced phage clones,peritoneal macrophages; peritoneal cells of 4T1 tumor mice,most highly represented non-truncated peptide
same,position of the phage clone in the list of hits,RAW 267.4 cells,2140
